For the assay, the system named is eIF2α S52A mutant cells. The assay is described as follows: Polysome profiling and real-time PCR in eIF2α S52A mutant cells. To be noted: i14G1-10 30 μM, i14G1-12 15 μM, 3 h; for translation of ISR genes in polysome fractions: S52A cells; for overall translation, polysome to monosome ratio (P/M): S52A mutant cells. It is filed as cell-based, mouse. The source says: FIGS. 6A-G: i14G1-10 and i14G1-12 uncover roles of the eIF4G1-eIF1 complex in ISR, cell cycle and cell survival. […] (6B). Ribo-seq and TI-seq read tracks of representative stress response-associated mRNAs (i.e., ATF3, and GADD45A) in DMSO (black), i14G1-10 (red), and i14G1-12 (green) samples. The red triangle represents 5′UTR TIS codons and the green denotes annotated TIS. Black arrows show the translation direction. (6C) Mouse embryonic fibroblasts (MEFs) control cells and eIF2αS52A mutant MEF cells were treated with Thapsigargin (1 μM) for 1h. Cells were lysed, and cell lysate was analyzed using western blot with the indicated antibodies. (6D) Control cells and eIF2αS52A mutant MEF cells were treated with DMSO, i14G1-10 (30 μM) or i14G1-12 (15 μM) for 3 h, cells were lysed in polysome buffer and loaded onto sucrose density gradient for polysome separation followed by fractionation. The graph presents the polysomes vs monosomes ratio in control MEFs (purple) and eIF2αS52A mutant cells (blue). (6E) Fractions were pooled (from 6D) according to the polysome profile as free (grey), light (blue), and heavy (yellow) polysomal fractions. cDNA was prepared from each fraction pool and real-time PCR was performed for the indicated stress response genes. The data are shown as mean±SEM, n=3. The asterisks denote statistically significant differences compared to DMSO, according to Student's t-tests (one-tailed, paired), *p<0.05; **p<0.01. (6F-G). HEK293T cells were transfected with HA-eIF1 or HA-eIF4E, 48 h later, treated with (6F) 1 μM Thapsigargin or (6G) 250 nM Torin-1. Cell lysates were subjected to immunoprecipitation with HA-agarose beads to precipitate HA-eIF1 and HA-eIF4E to check for co-IP of eIF4G1 using western blot (left). The graphs on the right represent the relative chemiluminescence signal intensity of the co-immunoprecipitation of eIF4G1 with HA-eIF1 or HA-eIF4E of 4 independent experiments. The asterisks denote statistically significant difference compared to DMSO *p<0.05; **p<0.01.
FIGS. 7A-E: (7A) Ribo-seq and TI-seq read tracks of representative stress response-associated mRNAs (DDIT3 and GADD34) in DMSO (black), i14G1-10 (red), and i14G1-12 (green) samples. The red triangle represents 5′UTR TIS codons and the green denotes annotated TIS. Black arrows show the translation direction. […] The graphs in the lower panel are the quantification of ATF4's uORF1′, uORF1, uORF2, and main-ORF reads of the Ribo-seq data. The asterisks denote statistically significant difference compared to DMSO, according to Student's t-tests (one-tailed, paired). **p<0.01, ***p<0.001, ****p<0.0001. (7C) HEK293T cells were treated with DMSO, i14G1-10, and i14G1-12 for 3 h, lysed and subjected to sucrose gradient sedimentation and fractionation. […]

Structures are written as SMILES.

As for `O=C(/C=C/Sc1ccc(C(F)(F)F)cn1)c1ccccc1` [i14G1-10], the “translation of ISR genes in polysome fractions” value is “upregulated” and the “overall translation, polysome to monosome ratio (P/M)” value was “not significantly”.
With `Cn1ccnc1S/C(=C/C=C(C#N)C#N)c1ccc(Cl)cc1` [i14G1-12], the “translation of ISR genes in polysome fractions” value is listed as “upregulated” and the “overall translation, polysome to monosome ratio (P/M)” value was “further inhibited”.

Source of the values: US20250090510A1, “eIF4G1-eIF1 INHIBITORS AND USE THEREOF” (YEDA RESEARCH AND DEVELOPMENT CO. LTD., priority 2022, published 2025).
